Here are results for one molecule from patent US12129504B2, “Caproate-producing bacterium with multiple substrate utilization capabilities and its applications” (Jiangnan University, priority 2021, dated 2024).

The structures appear in SMILES notation.

The conditions of data set [1]: cited from earlier work.
Data set [2] concerns Oscillospiraceae sp. LBM10036. As to the kind of experiment: Tolerance of the strain to toxicity of caproic acid: growth (OD600) in liquid mediums with different initial concentrations of caproic acid. The format is cell-based. An excerpt: A brewing environment of Strong aroma-type Baijiu is characterized by a low pH, and the lower the pH, the higher the content of free caproic acid in a system. Free caproic acid can cause toxicity to bacterial cells, therefore, the stronger the tolerance of bacterial cells to the toxicity of caproic acid, the more favorable it is for the survival of the bacterial cells in a system. The growth of the Oscillospiraceae sp. LBM10036 was tracked and measured by designing liquid mediums with different initial concentrations of caproic acid.
The medium contains (calculated in g/L): glucose 20.0, yeast powder 10.0, peptone 10.0, dipotassium hydrogen phosphate 1.0, potassium dihydrogen phosphate 0.5, ammonium sulfate 2.0, magnesium sulfate 0.1, and a cosubstrate 5.0, as well as a trace element nutrient solution 0.15-1.0 (mL/L). The cosubstrate is one or both of acetate and butyrate. The trace element nutrient solution contains (calculated in g/L): calcium chloride 10, cobalt chloride 10, zinc sulfate 10, manganese sulfate 10, and ferrous sulfate heptahydrate 15. The pH of the medium is 5.5, and the medium was sterilized at 115° C. for 30 min.
The dissolved medium was divided into 5 blue cap bottles (100 mL), each blue cap bottle containing 100 mL of medium. Before sterilization, the initial concentrations of caproic acid in the mediums were adjusted to 0 g/L, 1 g/L, 2 g/L, 3 g/L, and 4 g/L using a caproic acid standard. At this point, the initial concentrations of free caproic acid in the mediums were 0 g/L, 0.19 g/L, 0.37 g/L, 0.56 g/L, and 0.75 g/L, respectively. The mediums were sterilized at 115° C. for 30 min. After sterilization, the medium of each initial concentration gradient of caproic acid was divided into 3 parts, each part containing 30 mL in a 50 mL centrifuge tube. The residual mediums were taken out of an anaerobic incubator for re-determining the pH and initial concentrations of total caproic acid, and calculating whether the actual concentrations of free caproic acid meet the experimental design.
(1) An Oscillospiraceae sp. LBM10036 frozen glycerol tube was taken out from a −80° C. refrigerator, activated for cultivation for the first generation at 37° C. in the modified Clostridium growth medium prepared in (1) step 1 until the OD600 was 1.5-2.0 to obtain a first generation seed solution, and then the first generation seed solution was transferred to a fresh modified Clostridium growth medium at an inoculum concentration of 5% (v/v) and activated for the second generation cultivation at 37° C. for 12-18 h until the OD600 was 1.5-2.0 to obtain a second generation seed solution.
(2) 100 mL of the modified Clostridium growth medium described in step (1) was inoculated with the second generation seed solution obtained in step (1) at an inoculum concentration of 5% (v/v) and cultivated until the OD value was 1.5-2.0, to obtain a culture solution.
(3) The mediums with different initial concentration gradients of caproic acid prepared in (2) of step 1 were inoculated with the prepared culture solution at an inoculum concentration of 5% (v/v). The medium of each initial concentration gradient of caproic acid had 3 replicates, and sampled from 0 to 72 h at an interval of 12 h. The maximum specific growth rates under different initial concentration gradients of caproic acid were plotted (as shown in FIG. 4).

Consider `CCCCCC(=O)O` [caproic acid], for which the pKa in data set [1] was 4.86. Besides, the “growth of Oscillospiraceae sp.” value in data set [2] (caproic acid 4 g/L (free caproic acid 0.75 g/L)) is listed as “significantly inhibited”. The “concentration of free caproic acid at the maximum tolerable initial concentration” value in data set [2] (free caproic acid calculated from pH 5.5 and pKa 4.86) is given as 0.56 g/L. Moreover, the OD600 in data set [2] (initial caproic acid 1 g/L, 0 h, medium pH 5.5) is on record as 0.26 ± 0.00; in data set [2] (initial caproic acid 1 g/L, 12 h, medium pH 5.5), 0.53 ± 0.02; in data set [2] (initial caproic acid 1 g/L, 24 h, medium pH 5.5) it was 1.96 ± 0.17; in data set [2] (initial caproic acid 1 g/L, 48 h, medium pH 5.5), 2.39 ± 0.20; in data set [2] (initial caproic acid 1 g/L, 72 h, medium pH 5.5) it was 2.25 ± 0.32; in data set [2] (initial caproic acid 2 g/L, 0 h, medium pH 5.5) it was 0.27 ± 0.01. Further, the OD600 in data set [2] (initial caproic acid 2 g/L, 12 h, medium pH 5.5) amounted to 0.30 ± 0.02; in data set [2] (initial caproic acid 2 g/L, 24 h, medium pH 5.5), 1.06 ± 0.37; in data set [2] (initial caproic acid 2 g/L, 48 h, medium pH 5.5), 2.00 ± 0.10; in data set [2] (initial caproic acid 2 g/L, 72 h, medium pH 5.5) it was 1.72 ± 0.17; in data set [2] (initial caproic acid 3 g/L, 0 h, medium pH 5.5), 0.26 ± 0.01; in data set [2] (initial caproic acid 3 g/L, 12 h, medium pH 5.5) it was 0.69 ± 0.06. Besides, the OD600 in data set [2] (initial caproic acid 3 g/L, 24 h, medium pH 5.5) came out at 0.88 ± 0.07; in data set [2] (initial caproic acid 3 g/L, 48 h, medium pH 5.5), 1.46 ± 0.07; in data set [2] (initial caproic acid 3 g/L, 72 h, medium pH 5.5), 1.44 ± 0.05; in data set [2] (initial caproic acid 4 g/L, 0 h, medium pH 5.5) it was 0.23 ± 0.01; in data set [2] (initial caproic acid 4 g/L, 12 h, medium pH 5.5), 0.22 ± 0.01; in data set [2] (initial caproic acid 4 g/L, 24 h, medium pH 5.5), 0.20 ± 0.01. Moreover, the OD600 came to 0.21 ± 0.04 in data set [2] (initial caproic acid 4 g/L, 48 h, medium pH 5.5) and 0.20 ± 0.02 in data set [2] (initial caproic acid 4 g/L, 72 h, medium pH 5.5). Also, the “maximum tolerable initial concentration of caproic acid” value in data set [2] (total caproic acid, medium pH 5.5) stood at 3 g/L.

By pKa is commonly meant the negative logarithm of the acid dissociation constant.
